In the NIST ThermoML archive (doi:10.1016/j.jct.2005.10.019):

How the values were obtained:
[1] = 298.15 K; 101.33 kPa; Liquid
[2] = excess molar enthalpy (molar enthalpy of mixing); xn = mol fraction of the nth substance listed; conditions: 298.15 K, 101 kPa, Liquid

COC(=O)[C@H](C)CO [(2R)-3-hydroxy-2-methyl-propanoic acid methyl ester]
Conditions | mass density [kg/m3]
[1] | 1067.5

COC(=O)[C@H](C)CO [(2R)-3-hydroxy-2-methyl-propanoic acid methyl ester] + COC(=O)[C@@H](C)CO
[2]
Conditions | excess molar enthalpy [kcal/mol]
x2 = 0.08854 | 0.000741
x2 = 0.08893 | 0.000787
x2 = 0.08959 | 0.00072
x2 = 0.1627 | 0.00131
x2 = 0.1633 | 0.00127
x2 = 0.1645 | 0.0013
x2 = 0.2257 | 0.00171
x2 = 0.2265 | 0.00168
x2 = 0.2279 | 0.00172
x2 = 0.2798 | 0.00199
x2 = 0.2808 | 0.00198
x2 = 0.2825 | 0.002
x2 = 0.3269 | 0.00218
x2 = 0.328 | 0.00217
x2 = 0.3298 | 0.00221
x2 = 0.3682 | 0.00232
x2 = 0.3693 | 0.00231
x2 = 0.3713 | 0.00234
x2 = 0.4048 | 0.00241
x2 = 0.4059 | 0.00239
x2 = 0.4079 | 0.00242
x2 = 0.4373 | 0.00247
x2 = 0.4385 | 0.00246
x2 = 0.4405 | 0.00248
x2 = 0.4665 | 0.00251
x2 = 0.4677 | 0.00249
x2 = 0.4697 | 0.0025
x2 = 0.4928 | 0.00251
x2 = 0.4939 | 0.0025
x2 = 0.496 | 0.0025
x2 = 0.5037 | 0.00253
x2 = 0.5048 | 0.00253
x2 = 0.53 | 0.00252
x2 = 0.5311 | 0.00252
x2 = 0.5592 | 0.00248
x2 = 0.5602 | 0.00249
x2 = 0.5918 | 0.00242
x2 = 0.5928 | 0.00243
x2 = 0.6285 | 0.00233
x2 = 0.6294 | 0.00233
x2 = 0.6699 | 0.00218
x2 = 0.6709 | 0.00218
x2 = 0.7173 | 0.00196
x2 = 0.7182 | 0.00198
x2 = 0.7718 | 0.00167
x2 = 0.7726 | 0.00168
x2 = 0.8354 | 0.00125
x2 = 0.836 | 0.00126
x2 = 0.9103 | 0.000702
x2 = 0.9107 | 0.000702

ClC[C@H]1CO1 [(2R)-(chloromethyl)-oxirane]
Conditions | mass density [kg/m3]
[1] | 1093.3

ClC[C@H]1CO1 [(2R)-(chloromethyl)-oxirane] + ClC[C@@H]1CO1
[2]
Conditions | excess molar enthalpy [kcal/mol]
x2 = 0.01821 | 0.000204
x2 = 0.03578 | 0.000396
x2 = 0.05272 | 0.000577
x2 = 0.05939 | 0.000663
x2 = 0.06908 | 0.000741
x2 = 0.08489 | 0.000891
x2 = 0.1002 | 0.00103
x2 = 0.1121 | 0.00114
x2 = 0.1149 | 0.00116
x2 = 0.1292 | 0.00128
x2 = 0.1373 | 0.00133
x2 = 0.1431 | 0.00139
x2 = 0.1565 | 0.0015
x2 = 0.1593 | 0.00151
x2 = 0.1695 | 0.00159
x2 = 0.1706 | 0.00162
x2 = 0.1821 | 0.00169
x2 = 0.1943 | 0.00178
x2 = 0.2016 | 0.00181
x2 = 0.2399 | 0.00203
x2 = 0.2414 | 0.00209
x2 = 0.2748 | 0.00227
x2 = 0.2915 | 0.00239
x2 = 0.3065 | 0.00236
x2 = 0.3231 | 0.0025
x2 = 0.3356 | 0.00249
x2 = 0.3624 | 0.00263
x2 = 0.3693 | 0.00266
x2 = 0.3816 | 0.00275
x2 = 0.387 | 0.0027
x2 = 0.3889 | 0.00272
x2 = 0.4009 | 0.00275
x2 = 0.4099 | 0.00279
x2 = 0.417 | 0.00276
x2 = 0.4311 | 0.00279
x2 = 0.4384 | 0.00282
x2 = 0.4431 | 0.00282
x2 = 0.4498 | 0.00286
x2 = 0.4508 | 0.00278
x2 = 0.4514 | 0.00285
x2 = 0.4837 | 0.00286
x2 = 0.4882 | 0.00289
x2 = 0.4884 | 0.00286
x2 = 0.5071 | 0.00291
x2 = 0.5269 | 0.00284
x2 = 0.5337 | 0.00287
x2 = 0.5394 | 0.00285
x2 = 0.5525 | 0.00286
x2 = 0.5886 | 0.0028
x2 = 0.5902 | 0.00281
x2 = 0.6096 | 0.00273
x2 = 0.6221 | 0.00272
x2 = 0.6561 | 0.00261
x2 = 0.7008 | 0.0024
x2 = 0.741 | 0.00221
x2 = 0.7793 | 0.00196
x2 = 0.7927 | 0.00187
x2 = 0.8067 | 0.00171
x2 = 0.8211 | 0.00161
x2 = 0.8241 | 0.00165
x2 = 0.8361 | 0.00151
x2 = 0.8513 | 0.00144
x2 = 0.8516 | 0.00137
x2 = 0.8677 | 0.00129
x2 = 0.8844 | 0.00113
x2 = 0.9018 | 0.000956
x2 = 0.9198 | 0.000791
x2 = 0.9387 | 0.000621
x2 = 0.9583 | 0.000422
x2 = 0.9787 | 0.000218

COC(=O)[C@@H](C)CO [(2S)-3-hydroxy-2-methyl-propanoic acid methyl ester]
Conditions | mass density [kg/m3]
[1] | 1069.6

ClC[C@@H]1CO1 [(2S)-chloromethyl-oxirane]
Conditions | mass density [kg/m3]
[1] | 1093.5

C[C@@H]1COC(=O)O1 [(R)-4-methyl-1,3-dioxolan-2-one]
Conditions | mass density [kg/m3]
[1] | 1199.4
